In ChEMBL document CHEMBL1250554, “Design and preparation of sterol mimetics as potential antiparasitics” (Bioorg Med Chem, 2010):

Tests used:
[1] = Cytotoxicity against rat L6 cells; assay type: cell-based; conditions: read-out: TD50 (the source's name)
[2] = system: Trypanosoma brucei rhodesiense; assay: Antiparasitic activity against blood stream form of Trypanosoma brucei rhodesiense; assay type: functional, organism-based
Trypanosoma cruzi = assay: Antiparasitic activity against amastigotes of Trypanosoma cruzi; assay type: functional, organism-based
Leishmania donovani = assay: Antiparasitic activity against axenic amastigotes of Leishmania donovani; assay type: functional, organism-based

Row | EC50 [2] | EC50 (Trypanosoma cruzi) | EC50 (Leishmania donovani) | SMILES | CC50 [1]
1 | 11.5 µM | 141 µM | 73 µM | COC(=O)CCCNCCc1ccc(NC(=O)c2ccc(COC(C)=O)cc2)cc1 | > 218 µM
2 | 40 µM | > 230 µM | 80 µM | COC(=O)CCCNCC1CCN(C(=O)Nc2ccc(COC(C)=O)cc2)C1 (centres undefined) | > 230 µM
3 | 76 µM | > 215 µM | 41 µM | COC(=O)CCCCCNCC1CCN(C(=O)Nc2ccc(COC(C)=O)cc2)C1 (centres undefined) | > 214 µM

Continued, compound first:

Row | SMILES | EC50 [2] | EC50 (Trypanosoma cruzi) | EC50 (Leishmania donovani) | CC50 [1]
4 | COC(=O)CCCNCc1ccc(NC(=O)c2ccc(COC(C)=O)cc2)cc1 | 78 µM | 207 µM | 2.6 µM | 161 µM
5 | CC(=O)OCc1ccc(NC(=O)N2CCC(CO)C2)cc1 (centres undefined) | 52 µM | > 308 µM | 26 µM | > 308 µM
6 | CC(=O)OCc1ccc(NC(=O)N2CCC(CN3CCCC3=O)C2)cc1 (centres undefined) | 43 µM | 181 µM | 30 µM | > 250 µM
